Here are results for 25 molecules from US8859768B2, “Heteroaryls and uses thereof” (Millennium Pharmaceuticals, Inc., priority 2010, dated 2014).

For the assay, the target named is T1, Human VPS34 (Homo sapiens, UniProt Q8NEB9).
T1 construct: GST (N); host or cells: SF9 insect cells (baculovirus)
T1 sequence (Q8NEB9 whole entry): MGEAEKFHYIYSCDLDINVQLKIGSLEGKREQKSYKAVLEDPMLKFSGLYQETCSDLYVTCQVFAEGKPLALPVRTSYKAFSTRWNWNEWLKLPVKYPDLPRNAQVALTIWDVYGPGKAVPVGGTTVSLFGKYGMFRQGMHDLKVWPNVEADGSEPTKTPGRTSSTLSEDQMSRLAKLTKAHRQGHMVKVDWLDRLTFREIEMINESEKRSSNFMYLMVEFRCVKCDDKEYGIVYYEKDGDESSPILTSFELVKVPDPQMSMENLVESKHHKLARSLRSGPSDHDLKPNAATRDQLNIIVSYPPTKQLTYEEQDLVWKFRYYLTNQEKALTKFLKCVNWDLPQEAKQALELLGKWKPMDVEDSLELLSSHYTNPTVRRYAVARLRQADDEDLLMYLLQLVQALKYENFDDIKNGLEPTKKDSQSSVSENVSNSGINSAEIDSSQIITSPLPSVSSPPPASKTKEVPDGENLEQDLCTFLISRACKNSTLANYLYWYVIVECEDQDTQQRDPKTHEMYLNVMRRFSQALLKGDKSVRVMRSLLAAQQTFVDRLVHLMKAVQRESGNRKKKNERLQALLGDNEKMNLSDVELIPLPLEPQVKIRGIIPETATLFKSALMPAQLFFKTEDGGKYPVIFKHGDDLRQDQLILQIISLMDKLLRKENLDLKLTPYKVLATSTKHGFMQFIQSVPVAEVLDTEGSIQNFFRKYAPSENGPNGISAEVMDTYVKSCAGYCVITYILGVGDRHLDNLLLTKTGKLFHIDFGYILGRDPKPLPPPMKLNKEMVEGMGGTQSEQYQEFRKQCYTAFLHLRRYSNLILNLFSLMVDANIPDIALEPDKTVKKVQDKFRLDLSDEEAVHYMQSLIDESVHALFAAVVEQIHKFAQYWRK
The assay is described as follows: Human VPS34 Enzyme Assay (Adapta TR-FRET). In kind it is biochemical. The note with it: compound at 1.111 μM; read-out: Average VPS34 % INH @ 1.111 μM. The procedure:
VPS34 (accession number GB:BC033004) was cloned into pDEST20-Thombin as N-terminal GST tagged fusion proteins using the Gateway system (Invitrogen, catalog#11804-013). The sequences were verified before recombinant protein expression using the Baculovirus Expression System with Gateway® Technology.
For expression VPS34 was infected at 1MOI in SF9 cells and harvested 72 hours post infection.
For purification, VPS34 is purified by Glutathione Sepharose 4 Fast Flow (GE Healthcare #17-5132-03) followed by HiTrap Q (GE Healthcare #17-1153-01).
Human VPS34 Enzyme Assay Method
100 nL compounds in DMSO are added to wells of a 384 well microtitre plate (Greiner 780076). At room temperature: 5 ul VPS34 reaction buffer (Invitrogen Assay Buffer Q (diluted 1 in 5 with nanopure water) plus 2 mM DTT and 2 mM MnCl2) containing ATP (20 uM, Promega) and 200 uM PI-PS substrate (Invitrogen PV5122) is added followed immediately by 5 ul VPS34 reaction buffer (as above) containing VPS34 (5 nM, Millennium Protein Sciences Group) and the mixture is incubated with shaking at room temperature for 1 hour. Then 5 ul VPS34 stop-detect mix (as per Invitrogen Adapta Assay kit (PV5009) instructions (contains kinase quench buffer, TR-FRET buffer, Adapta Eu anti-ADP antibody and Alexa Fluor 647 ADP tracer)) is added to quench the reaction. The plates are then incubated for 30 minutes at room temperature with shaking and then read on a BMG PheraStar Plus reader.
3) VPS34 is assayed using Adapta™ Universal Kinase Assay Kit (Invitrogen).
(Time-resolved FRET reads energy transfer from a long-lived donor to a nearby acceptor.)
As to `CCNC(=O)c1nc(-c2cc(NC(C)=O)ncc2C)oc1-c1ccccc1Cl` [Compound I-59, 2-(2-acetamido-5-methylpyridin-4-yl)-5-(2-chlorophenyl)-N-ethyl-1,3-oxazole-4-carboxamide], the inhibition at 1.111 µM stood at 101%.

On to `CC(=O)Nc1cc(-c2nc(-c3cc[nH]n3)c(-c3ccccc3Cl)o2)c(C)cn1` [Compound I-30, N-{4-[5-(2-chlorophenyl)-4-(1H-pyrazol-3-yl)-1,3-oxazol-2-yl]-5-methylpyridin-2-yl}acetamide], for which the inhibition at 1.111 µM is 114%.

As to `CC(=O)Nc1cc(-c2nc(-c3ccccc3Cl)c(-c3cc[nH]n3)o2)c(C)cn1` [Compound I-57, N-{4-[4-(2-chlorophenyl)-5-(1H-pyrazol-3-yl)-1,3-oxazol-2-yl]-5-methylpyridin-2-yl}acetamide], the inhibition at 1.111 µM came to 135%.

Turning to `CC(=O)Nc1cc(-c2cc(-c3ncco3)c(-c3ccccc3Cl)o2)c(C)cn1` [Compound I-69, N-{4-[5-(2-chlorophenyl)-4-(1,3-oxazol-2-yl)-2-furyl]-5-methylpyridin-2-yl}acetamide], the inhibition at 1.111 µM was 144%.

In the case of `CC(=O)Nc1cc(-c2nc(C(=O)NC[C@@H](C)O)c(-c3ccccc3Cl)o2)c(C)cn1` (stereo in doubt) [Compound I-62, 2-(2-acetamido-5-methylpyridin-4-yl)-5-(2-chlorophenyl)-N-(2-hydroxypropyl)-1,3-oxazole-4-carboxamide], the inhibition at 1.111 µM came to 51%.

With `CC(=O)Nc1cc(-c2nc(-c3ccccc3Cl)c(C(N)=O)o2)c(C)cn1` [Compound I-5, 2-[2-(acetylamino)-5-methylpyridin-4-yl]-4-(2-chlorophenyl)-1,3-oxazole-5-carboxamide], the inhibition at 1.111 µM was determined as 108%.

Consider `CC(=O)Nc1cc(-c2nc(C(N)=O)c(-c3ccccc3Cl)o2)c(C)cn1` [Compound I-3, 2-[2-(acetylamino)-5-methylpyridin-4-yl]-5-(2-chlorophenyl)-1,3-oxazole-4-carboxamide], for which the inhibition at 1.111 µM was found to be 112%.

With `CC(=O)Nc1cc(-c2nc(-c3ccccc3Cl)c(-c3ccccn3)o2)c(C)cn1` [Compound I-78, N-{4-[4-(2-chlorophenyl)-5-(pyridin-2-yl)-1,3-oxazol-2-yl]-5-methylpyridin-2-yl}acetamide], the inhibition at 1.111 µM came to 43%.

Consider `C=CCCC(=O)Nc1cc(-c2nc(-c3nnc[nH]3)c(-c3ccccc3Cl)o2)ccn1` [Compound I-43, N-{4-[5-(2-chlorophenyl)-4-(4H-1,2,4-triazol-3-yl)-1,3-oxazol-2-yl]pyridin-2-yl}pent-4-enamide], for which the inhibition at 1.111 µM came to 98%.

Turning to `Cc1cnc(NC(=O)C2CC2)cc1-c1nc(C(N)=O)c(-c2ccccc2Cl)o1` [Compound I-86, 5-(2-chlorophenyl)-2-{2-[(cyclopropylcarbonyl)amino]-5-methylpyridin-4-yl}-1,3-oxazole-4-carboxamide], the inhibition at 1.111 µM was determined as 117%.

As to `COCC(=O)Nc1cc(-c2nc(-c3nnc[nH]3)c(-c3ccccc3Cl)o2)ccn1` [Compound I-87, N-{4-[5-(2-chlorophenyl)-4-(4H-1,2,4-triazol-3-yl)-1,3-oxazol-2-yl]pyridin-2-yl}-2-methoxyacetamide], the inhibition at 1.111 µM was found to be 109%.

For `CC(=O)Nc1cc(-c2cc(C(=O)NCc3ccc(N(C)C)cc3)c(-c3ccccc3Cl)o2)c(C)cn1` [Compound I-85, 5-(2-acetamido-5-methylpyridin-4-yl)-2-(2-chlorophenyl)-N-[4-(dimethylamino)benzyl]-3-furamide], the inhibition at 1.111 µM was found to be 56%.

For the molecule `CC(=O)Nc1cc(-c2nc(C(=O)NCCC(C)C)c(-c3ccccc3Cl)o2)c(C)cn1` [Compound I-11, 2-(2-acetamido-5-methylpyridin-4-yl)-5-(2-chlorophenyl)-N-(3-methylbutyl)-1,3-oxazole-4-carboxamide], the inhibition at 1.111 µM turned out to be 22%.

`Clc1ccccc1-c1oc(-c2ccnc3[nH]ccc23)nc1-c1nnc[nH]1` [Compound I-71, 4-[5-(2-chlorophenyl)-4-(4H-1,2,4-triazol-3-yl)-1,3-oxazol-2-yl]-1H-pyrrolo[2,3-b]pyridine]: the inhibition at 1.111 µM was found to be 87%.

Turning to `CC(=O)Nc1cc(-c2cc(-c3nnc[nH]3)c(-c3ccccc3Cl)o2)c(C)cn1` [Compound I-23, N-{4-[5-(2-chlorophenyl)-4-(4H-1,2,4-triazol-3-yl)-2-furyl]-5-methylpyridin-2-yl}acetamide], the inhibition at 1.111 µM amounted to 139%.

With `CCCC(=O)Nc1cc(-c2nc(-c3nnc[nH]3)c(-c3ccccc3Cl)o2)ccn1` [Compound I-76, N-{4-[5-(2-chlorophenyl)-4-(4H-1,2,4-triazol-3-yl)-1,3-oxazol-2-yl]pyridin-2-yl}butanamide], the inhibition at 1.111 µM came to 79%.

On to `CC(=O)Nc1cc(-c2nc(-c3cc(CN4CCCC4)ccc3Cl)c(-c3nnc[nH]3)o2)c(C)cn1` [Compound I-16, N-(4-{4-[2-chloro-5-(pyrrolidin-1-ylmethyl)phenyl]-5-(4H-1,2,4-triazol-3-yl)-1,3-oxazol-2-yl}-5-methylpyridin-2-yl)acetamide], for which the inhibition at 1.111 µM stood at 131%.

`CC(=O)Nc1cc(-c2nc(C(=O)O)c(-c3ccccc3Cl)o2)c(C)cn1` [Compound I-6, 2-[2-(acetylamino)-5-methylpyridin-4-yl]-5-(2-chlorophenyl)-1,3-oxazole-4-carboxylic acid]: the inhibition at 1.111 µM was determined as 99%.

For the molecule `CC(=O)Nc1cc(-c2cc(C(=O)NCCCN3CCCC3)c(-c3ccccc3Cl)o2)c(C)cn1` [Compound I-84, 5-(2-acetamido-5-methylpyridin-4-yl)-2-(2-chlorophenyl)-N-[3-(pyrrolidin-1-yl)propyl]-3-furamide], the inhibition at 1.111 µM was found to be 54%.

For `CC(=O)Nc1cc(-c2nc(-c3ncco3)c(-c3ccccc3Cl)o2)c(C)cn1` [Compound I-10, N-{4-[5′-(2-chlorophenyl)-2,4′-bi-1,3-oxazol-2′-yl]-5-methylpyridin-2-yl}acetamide], the inhibition at 1.111 µM stood at 132%.

As for `CC(=O)Nc1cc(-c2nc(-c3nccs3)c(-c3ccccc3Cl)o2)c(C)cn1` [Compound I-60, N-{4-[5-(2-chlorophenyl)-4-(1,3-thiazol-2-yl)-1,3-oxazol-2-yl]-5-methylpyridin-2-yl}acetamide], the inhibition at 1.111 µM came to 122%.

Regarding `CC(=O)Nc1cc(-c2cc(C(=O)O)c(-c3ccccc3Cl)o2)ccn1` [Compound I-2, 5-[2-(acetylamino)pyridin-4-yl]-2-(2-chlorophenyl)-3-furoic acid], the inhibition at 1.111 µM was found to be 124%.

`CC(=O)Nc1cc(-c2nc(C(=O)Nc3cnccn3)c(-c3ccccc3Cl)o2)c(C)cn1` [Compound I-31, 2-(2-acetamido-5-methylpyridin-4-yl)-5-(2-chlorophenyl)-N-(pyrazin-2-yl)-1,3-oxazole-4-carboxamide]: the inhibition at 1.111 µM was 56%.

On to `CC(=O)Nc1cc(-c2nc(C(=O)NCc3cccs3)c(-c3ccccc3Cl)o2)c(C)cn1` [Compound I-38, 2-(2-acetamido-5-methylpyridin-4-yl)-5-(2-chlorophenyl)-N-(2-thienylmethyl)-1,3-oxazole-4-carboxamide], for which the inhibition at 1.111 µM amounted to 43%.

Consider `Nc1cc(-c2nc(-c3nnc[nH]3)c(-c3ccccc3Cl)o2)ccn1` [Compound I-32, 4-[5-(2-chlorophenyl)-4-(4H-1,2,4-triazol-3-yl)-1,3-oxazol-2-yl]pyridin-2-amine], for which the inhibition at 1.111 µM was 26%.
